# Laboratory results taken from patent US10597388B2, “Pyridazinone herbicides” (FMC CORPORATION, priority 2014, dated 2020).
# How the values were obtained:
# Assay in all cases: Test D controlled growth environment herbicide test, pre- and postemergence
# Type in all cases: in vivo
# [1] = system: lambsquarters (Chenopodium album)
# In short: (§1)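 Pre-emergence: seeds sown in silt loam soil were sprayed with compound in a non-phytotoxic solvent mix containing surfactant. Post-emergence: plants at 2 to 18 cm (1- to 4-leaf stage) in peat moss/vermiculite medium got the same formulation. Visual 0–100 rating versus controls after 14 to 21 d.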
# [2] = system: wheat, winter (winter wheat, Triticum aestivum)
# In short: as §1
# [3] = system: galium (catchweed bedstraw, Galium aparine)
# In short: as §1
# [4] = system: mustard, wild (wild mustard, Sinapis arvensis)
# In short: as §1
# [5] = system: barley, winter (winter barley, Hordeum vulgare)
# In short: as §1
# [6] = system: Russian thistle (Salsola kali)
# In short: as §1
# [7] = system: chickweed (common chickweed, Stellaria media)
# In short: as §1
# [8] = system: windgrass (Apera spica-venti)
# In short: as §1
# [9] = system: deadnettle (henbit deadnettle, Lamium amplexicaule)
# In short: as §1
# [10] = system: field poppy (Papaver rhoeas)
# In short: as §1
# kochia (Kochia scoparia) = system: kochia (Kochia scoparia)
# In short: as §1
# [11] = system: bromegrass, downy (downy bromegrass, Bromus tectorum)
# In short: as §1
# [12] = system: speedwell (bird's-eye speedwell, Veronica persica)
# In short: as §1
# [13] = Postemergence, 31 g ai/ha, scale 0 to 100 (0 no effect, 100 complete control)
# [14] = Postemergence, 125 g ai/ha, visual rating on scale 0 (no effect) to 100 (complete control), 14 to 21 d
# [15] = Postemergence, 250 g ai/ha, scale 0 to 100 (0 no effect, 100 complete control)
# [16] = Preemergence, 125 g ai/ha, scale 0 to 100 (0 no effect, 100 complete control)
# [17] = Preemergence, 250 g ai/ha, scale 0 to 100 (0 no effect, 100 complete control)
# [18] = postemergence, 62 g ai/ha, scale 0 to 100, 0 no effect, 100 complete control
# [19] = Preemergence, 62 g ai/ha, scale 0 to 100 (0 no effect, 100 complete control)
structure (smiles),measurement,setting,value
CCOC(=O)Oc1c(C)nn(C)c(=O)c1-c1c(C)sc2ccc(C)cc12 [Compound 82],Lambsquarters plant response rating,[1]; [13],95
same,"Plant response rating, Lambsquarters",[1]; [14],95
same,"Plant response rating, Lambsquarters",[1]; [15],100
same,"Plant response rating (scale of 0 to 100), Lambsquarters","[1]; Preemergence, 31 g ai/ha",75
same,"Plant response rating (scale of 0 to 100), Lambsquarters","[1]; Preemergence, 62 g ai/ha",95
same,"Plant response rating, Lambsquarters",[1]; [16],100
same,"Plant response rating, Lambsquarters",[1]; [17],100
same,"Plant response rating, Lambsquarters",[1]; [18],95
same,"Wheat, Winter plant response rating",[2]; [13],0
same,"Plant response rating, Wheat, Winter",[2]; [14],0
same,"Plant response rating, Wheat, Winter",[2]; [15],0
same,"Plant response rating (scale of 0 to 100), Wheat, Winter","[2]; Preemergence, 31 g ai/ha",0
same,"Plant response rating (scale of 0 to 100), Wheat, Winter","[2]; Preemergence, 62 g ai/ha",0
same,"Plant response rating, Wheat, Winter",[2]; [16],0
same,"Plant response rating, Wheat, Winter",[2]; [17],10
same,"Plant response rating, Wheat, Winter",[2]; [18],0
same,Galium plant response rating,[3]; [13],90
same,"Plant response rating, Galium",[3]; [14],100
same,"Plant response rating, Galium",[3]; [15],100
same,"Plant response rating (scale of 0 to 100), Galium","[3]; Preemergence, 31 g ai/ha",60
same,"Plant response rating (scale of 0 to 100), Galium","[3]; Preemergence, 62 g ai/ha",60
same,"Plant response rating, Galium",[3]; [16],80
same,"Plant response rating, Galium",[3]; [17],85
same,"Plant response rating, Galium",[3]; [18],100
same,"Mustard, Wild plant response rating",[4]; [13],25
same,"Plant response rating, Mustard, Wild",[4]; [14],40
same,"Plant response rating, Mustard, Wild",[4]; [15],70
same,"Plant response rating (scale of 0 to 100), Mustard, Wild","[4]; Preemergence, 31 g ai/ha",0
same,"Plant response rating (scale of 0 to 100), Mustard, Wild","[4]; Preemergence, 62 g ai/ha",0
same,"Plant response rating, Mustard, Wild",[4]; [16],25
same,"Plant response rating, Mustard, Wild",[4]; [17],15
same,"Plant response rating, Mustard, Wild",[4]; [18],35
same,"Barley, Winter plant response rating",[5]; [13],0
same,"Plant response rating, Barley, Winter",[5]; [14],0
same,"Plant response rating, Barley, Winter",[5]; [15],0
same,"Plant response rating (scale of 0 to 100), Barley, Winter","[5]; Preemergence, 31 g ai/ha",0
same,"Plant response rating, Barley, Winter",[5]; [19],0
same,"Plant response rating, Barley, Winter",[5]; [16],5
same,"Plant response rating, Barley, Winter",[5]; [17],25
same,"Plant response rating, Barley, Winter",[5]; [18],0
same,Russian Thistle plant response rating,[6]; [13],65
same,"Plant response rating, Russian Thistle",[6]; [14],75
same,"Plant response rating, Russian Thistle",[6]; [15],85
same,"Plant response rating (scale of 0 to 100), Russian Thistle","[6]; Preemergence, 31 g ai/ha",10
same,"Plant response rating (scale of 0 to 100), Russian Thistle","[6]; Preemergence, 62 g ai/ha",15
same,"Plant response rating, Russian Thistle",[6]; [16],65
same,"Plant response rating, Russian Thistle",[6]; [17],65
same,"Plant response rating, Russian Thistle",[6]; [18],75
same,Chickweed plant response rating,[7]; [13],80
same,"Plant response rating, Chickweed",[7]; [14],95
same,"Plant response rating, Chickweed",[7]; [15],100
same,"Plant response rating (scale of 0 to 100), Chickweed","[7]; Preemergence, 31 g ai/ha",100
same,"Plant response rating (scale of 0 to 100), Chickweed","[7]; Preemergence, 62 g ai/ha",100
same,"Plant response rating, Chickweed",[7]; [16],100
same,"Plant response rating, Chickweed",[7]; [17],100
same,"Plant response rating, Chickweed",[7]; [18],90
same,Windgrass plant response rating,[8]; [13],70
same,"Plant response rating, Windgrass",[8]; [14],80
same,"Plant response rating, Windgrass",[8]; [15],85
same,"Plant response rating (scale of 0 to 100), Windgrass","[8]; Preemergence, 31 g ai/ha",75
same,"Plant response rating (scale of 0 to 100), Windgrass","[8]; Preemergence, 62 g ai/ha",80
same,"Plant response rating, Windgrass",[8]; [16],100
same,"Plant response rating, Windgrass",[8]; [17],100
same,"Plant response rating, Windgrass",[8]; [18],75
same,Deadnettle plant response rating,[9]; [13],10
same,"Plant response rating, Deadnettle",[9]; [14],25
same,"Plant response rating, Deadnettle",[9]; [15],35
same,"Plant response rating (scale of 0 to 100), Deadnettle","[9]; Preemergence, 31 g ai/ha",10
same,"Plant response rating (scale of 0 to 100), Deadnettle","[9]; Preemergence, 62 g ai/ha",25
same,"Plant response rating, Deadnettle",[9]; [16],25
same,"Plant response rating, Deadnettle",[9]; [17],70
same,"Plant response rating, Deadnettle",[9]; [18],10
same,Field Poppy plant response rating,[10]; [13],70
same,"Plant response rating, Field Poppy",[10]; [14],95
same,"Plant response rating, Field Poppy",[10]; [15],100
same,"Plant response rating (scale of 0 to 100), Field Poppy","[10]; Preemergence, 31 g ai/ha",95
same,"Plant response rating (scale of 0 to 100), Field Poppy","[10]; Preemergence, 62 g ai/ha",100
same,"Plant response rating, Field Poppy",[10]; [16],100
same,"Plant response rating, Field Poppy",[10]; [17],100
same,"Plant response rating, Field Poppy",[10]; [18],85
same,Kochia plant response rating,kochia (Kochia scoparia); [13],90
same,"Plant response rating, Kochia",kochia (Kochia scoparia); [14],100
same,"Plant response rating, Kochia",kochia (Kochia scoparia); [15],100
same,"Plant response rating (scale of 0 to 100), Kochia","kochia (Kochia scoparia); Preemergence, 31 g ai/ha",0
same,"Plant response rating (scale of 0 to 100), Kochia","kochia (Kochia scoparia); Preemergence, 62 g ai/ha",15
same,"Plant response rating, Kochia",kochia (Kochia scoparia); [16],75
same,"Plant response rating, Kochia",kochia (Kochia scoparia); [17],100
same,"Plant response rating, Kochia",kochia (Kochia scoparia); [18],95
same,"Bromegrass, Downy plant response rating",[11]; [13],55
same,"Plant response rating, Bromegrass, Downy",[11]; [14],60
same,"Plant response rating, Bromegrass, Downy",[11]; [15],60
same,"Plant response rating (scale of 0 to 100), Bromegrass, Downy","[11]; Preemergence, 31 g ai/ha",45
same,"Plant response rating, Bromegrass, Downy",[11]; [19],65
same,"Plant response rating, Bromegrass, Downy",[11]; [16],80
same,"Plant response rating, Bromegrass, Downy",[11]; [17],85
same,"Plant response rating, Bromegrass, Downy",[11]; [18],45
same,Speedwell plant response rating,[12]; [13],70
same,"Plant response rating, Speedwell",[12]; [14],85
same,"Plant response rating, Speedwell",[12]; [15],85
same,"Plant response rating (scale of 0 to 100), Speedwell","[12]; Preemergence, 31 g ai/ha",75
same,"Plant response rating (scale of 0 to 100), Speedwell","[12]; Preemergence, 62 g ai/ha",75
same,"Plant response rating, Speedwell",[12]; [16],100
same,"Plant response rating, Speedwell",[12]; [17],100
same,"Plant response rating, Speedwell",[12]; [18],75
